PMC2254445, “Statistical learning of peptide retention behavior in chromatographic separations: a new kernel-based approach for computational proteomics” (BMC Bioinformatics, 2007)

Assay: Peptide retention time in capillary IP-RP-HPLC with ESI-MS detection
Type: physicochemical
Details: vds1 (verified peptides, tryptic digest of protein mixture 1), 50 × 0.2 mm monolithic poly-(styrene/divinylbenzene) column, gradient 0–40% acetonitrile in 0.05% (v/v) aqueous trifluoroacetic acid in 60 min, 55°C, 2 μl/min; for observed retention time: in s (unit assumed); for normalized retention time (NRT): retention times scaled linearly so that TCVADESHAGCEK = 0.1 and MPCTEDYLSLILNR = 0.9
Source text: The datasets for training and evaluation of the retention time predictor had to fulfill two basic requirements. First, the identity of the studied peptides had to be known with high certainty in order to avoid incorrect sequence annotations for the training dataset, and second, retention times had to be measured with high reproducibility. Altogether, we measured 19 different proteins, which were purchased from Sigma (St. Louis, MO) or Fluka (Buchs, Switzerland). To avoid excessive overlapping of peptides in the chromatographic separations, the proteins were divided into three artificial protein mixtures and subsequently digested using trypsin (Promega, Madison, WI) using published protocols. The protein mixtures contained the following proteins in concentrations between 0.4 – 3.2 pmol/μl:
Mixture 1: β-casein (bovine milk), conalbumin (chicken egg white), myelin basic protein (bovine), hemoglobin (human), leptin (human), creatine phosphokinase (rabbit muscle), α1-acid-glycoprotein (human plasma), albumin (bovine serum). […]
Adding albumin to each protein mixture was performed because in each run, there had to be an identical set of peptides to normalize the retention times. The resulting peptide mixtures were then separated using capillary IP-RP-HPLC and subsequently identified by electrospray ionization mass spectrometry (ESI-MS) as described in detail in [37, 38]. The separations were carried out in a capillary/nano HPLC system (Model Ultimate 3000, Dionex Benelux, Amsterdam, The Netherlands) using a 50 × 0.2 mm monolithic poly-(styrene/divinylbenzene) column (Dionex Benelux) and a gradient of 0–40% acetonitrile in 0.05% (v/v) aqueous trifluoroacetic acid in 60 min at 55°C. The injection volume was 1 μl, and each digest was analyzed in triplicate at a flow rate of 2 μl/min. On-line ESI-MS detection was carried out with a quadrupole ion-trap mass spectrometer (Model esquire HCT, Bruker Daltonics, Bremen, Germany).
Peptides were identified on the basis of their tandem mass spectra (maximum allowed mass deviations: precursor ions: ± 1.3 Da, fragment ions: ± 0.3 Da) using Mascot (version 2.1.03). The database was the Mass Spectrometry Database, MSDB (version 2005-02-27) restricted to chordata (vertebrates and relatives). We allowed one missed cleavage as well as charges 1+, 2+ and 3+. The mass values were monoisotopic. The significance level of the significance threshold score for the peptide hits was 0.05. Since the amino acid sequences of the 19 proteins of our mixtures are known, we could verify the identifications by sequence comparison with the protein sequences. To avoid random verifications, we restricted the peptide length to be equal or greater than six. The whole process led to two datasets for each protein mixture – one which only contained the verified peptides and the other one with all Mascot identifications. In this paper, we call the datasets containing the verified peptide sequences vds and the datasets with all Mascot identifications ds. The vdss are used to train the predictors and the dss are used to access the classification performance of the identification process.
We chose two standard peptides which were identified in all of the runs. One of these peptides, which had the amino acid sequence TCVADESHAGCEK, eluted very early and the other one, which had the amino acid sequence MPCTEDYLSLILNR, eluted very late. We scaled the retention times linearly so that the early eluting peptide got an NRT of 0.1 and the late eluting peptide an NRT of 0.9. All peptides with an NRT below zero or above 1 were removed. The lists of identified peptides of vds1, vds2 and vds3, together with their respective retention times, are available as Additional files 1, 2 and 3 in the supplementary material.

Substance | observed retention time | normalized retention time (NRT)
CCTESLVNR [verified tryptic peptide, vds1] | 360 | 0.2011
CCTKPESER [verified tryptic peptide, vds1] | 47 | 0.05163
CLDGSR [verified tryptic peptide, vds1] | 169 | 0.1101
DDPHACYSTVFDK [verified tryptic peptide, vds1] | 809 | 0.4159
DDPHACYSTVFDKLK [verified tryptic peptide, vds1] | 1174 | 0.5908
DEYELLCLDGSR [verified tryptic peptide, vds1] | 1144 | 0.5761
DKCEPLEK [verified tryptic peptide, vds1] | 129 | 0.09093
DVCKNYQEAK [verified tryptic peptide, vds1] | 119 | 0.08607
ECCDKPLLEK [verified tryptic peptide, vds1] | 459 | 0.2486
ECCHGDLLECADDR [verified tryptic peptide, vds1] | 700 | 0.364
ECNLAEVPTHAVVVRPEK [verified tryptic peptide, vds1] | 1126 | 0.5677
EQLGEFYEALDCLR [verified tryptic peptide, vds1] | 1723 | 0.8534
EQLGEFYEALDCLRIPK [verified tryptic peptide, vds1] | 1949 | 0.9614
ETYGDMADCCEK [verified tryptic peptide, vds1] | 490 | 0.2635
EYEATLEECCAK [verified tryptic peptide, vds1] | 628 | 0.3297
FFSASCVPGATIEQK [verified tryptic peptide, vds1] | 1189 | 0.5977
GACLLPK [verified tryptic peptide, vds1] | 453 | 0.2458
GTFAALSELHCDK [verified tryptic peptide, vds1] | 1028 | 0.5207
GTFAALSELHCDKLHVDPENFK [verified tryptic peptide, vds1] | 1645 | 0.8158
GYTLPPHCSR [verified tryptic peptide, vds1] | 543 | 0.2886
IQWCAVGK [verified tryptic peptide, vds1] | 727 | 0.3767
KSCHTAVGR [verified tryptic peptide, vds1] | 59 | 0.05729

Substance | observed retention time | normalized retention time (NRT)
LCQLCQGSGGIPPEK [verified tryptic peptide, vds1] | 855 | 0.4382
LFTFHADICTLPDTEK [verified tryptic peptide, vds1] | 1608 | 0.7983
LKPDPNTLCDEFK [verified tryptic peptide, vds1] | 1112 | 0.5611
LRCASIQK [verified tryptic peptide, vds1] | 221 | 0.1348
MPCTEDYLSLILNR [late eluting standard peptide identified in all runs; verified tryptic peptide, vds1] | 1821 | –
NAPYSGYSGAFHCLK [verified tryptic peptide, vds1] | 1104 | 0.5571
NECFLSHKDDSPDLPK [verified tryptic peptide, vds1] | 944 | 0.4804
NLQMDDFELLCTDGR [verified tryptic peptide, vds1] | 1581 | 0.7853
NLQMDDFELLCTDGRR [verified tryptic peptide, vds1] | 1522 | 0.7573
RPCFSALTPDETYVPK [verified tryptic peptide, vds1] | 1337 | 0.6687
SHCIAEVEK [verified tryptic peptide, vds1] | 238 | 0.1429
SLHTLFGDELCK [verified tryptic peptide, vds1] | 1196 | 0.6014
TCNPSDILQMCSFLEGK [verified tryptic peptide, vds1] | 1877 | 0.9271
TCVADESHAGCEK [early eluting standard peptide identified in all runs; verified tryptic peptide, vds1] | 148 | –
TGTCNFDEYFSEGCAPGSPPNSR [verified tryptic peptide, vds1] | 1370 | 0.6845
TSCHTGLGR [verified tryptic peptide, vds1] | 76 | 0.06527
VGGHAAEYGAEALER [verified tryptic peptide, vds1] | 643 | 0.3365
WCTISSPEEK [verified tryptic peptide, vds1] | 697 | 0.3623
WSVVSNGDVECTVVDETK [verified tryptic peptide, vds1] | 1250 | 0.6268
YICDNQDTISSK [verified tryptic peptide, vds1] | 404 | 0.2223
YNGVFQECCQAEDK [verified tryptic peptide, vds1] | 775 | 0.3998
